The values that follow come from ChEMBL document CHEMBL1126382, “Synthesis and anti-HIV activity of pyrrolo-[1,2-d]-(1,4)-benzodiazepin-6-ones” (Bioorg Med Chem Lett, 1992).

The test system of test [1] is MT2. Nature of the test: Inhibition concentration required to protect 50% of cells(MT-2) from HIV induced death was determined. It counts as functional. The conditions noted are these: Homo sapiens, read-out: TC50 (the source's name).
The test system of test [2] is MT2. Nature of the test: Inhibition concentration required to protect 90% of cells(MT-2) from HIV induced death was determined. The conditions noted are these: Homo sapiens. The class given is functional.
Test [3] has as its system Human immunodeficiency virus 1. The test is described as follows: (§1) Inhibitory concentration against HIV-1 was determined. It counts as functional, organism-based.
The subject of test [4] is MT2. The test is described as follows: Inhibition concentration required to protect 90% of cells(MT-2) from HIV-1(rf) induced death was determined. The class given is functional. The settings on record: Homo sapiens.
For test [5], the system named is MT2. Nature of the test: Inhibition concentration required to protect 50% of cells(MT-2) from HIV-1(3b) induced death was determined. It counts as functional. The settings on record: Homo sapiens, read-out: TC50 (the source's name).
The subject of test [6] is MT2. The test is described as follows: Inhibition concentration required to protect 50% of cells(MT-2) from HIV-1(rod) induced death was determined. It counts as functional, cell-based. The settings on record: Homo sapiens.
The subject of test [7] is MT2. The test is described as follows: Inhibition concentration required to protect 90% of cells(MT-2) from HIV-1(3b) induced death was determined. The class given is functional. The conditions noted are these: Homo sapiens.
The test system of test [8] is Human immunodeficiency virus 1. The test is described as §1. The class given is functional.

Converted amounts (≈) assume the structure as drawn. Bounds are passed on as bounds.

As usually defined, the IC90 is the point of the concentration-response curve where the effect stands at 90%. For the compound `O=C1Nc2ccccc2-c2cccn2[C@H]1Cc1ccccc1`, in test [1], the CC50 amounted to 21 µg/mL (≈ 72.8 µM). The IC90 in test [2] was over 21 µg/mL.
The term IC50 denotes the concentration needed to halve the response being measured. Low readings indicate higher potency, high ones lower potency. Compound `Cc1ccnc2c1NC(=O)c1cccnc1N2C1CC1` [NEVIRAPINE] registered an IC50 in test [3] of 40 nM.
Turning to `O=C1Nc2ccccc2-c2cccn2[C@H]1Cc1ccc(O)cc1`, the CC50 in test [1] was 23 µg/mL (≈ 75.6 µM). In test [2], this compound had an IC90 of over 23 µg/mL.
`O=Cc1ccc2n1CC(=O)Nc1ccccc1-2`: the CC50 in test [1] is over 50 µg/mL. In test [2], this compound gave an IC90 of over 50 µg/mL.
As for `O=C1[C@H](Cc2ccc(O)cc2)n2cccc2-c2ccccc2N1CCc1ccc(O)cc1`, the CC50 in test [1] was 10 µg/mL (≈ 23.6 µM). Besides, the IC90 in test [2] stood at 0.8 µg/mL (≈ 1.88 µM).
On to `CC(C)=CCN1Cc2cc(Cl)cc3nc(S)n(c23)CC1C` (stereo not drawn) [TIBO], for which the IC90 amounted to 0.15 µg/mL (≈ 0.466 µM) in test [4] and 1.5 µg/mL (≈ 4.66 µM) in test [7]. Also, the CC50 in test [5] turned out to be 55 µg/mL (≈ 171 µM). The compound also showed an IC50 in test [6] of over 50 µg/mL.
Take `O=C1c2ccccc2C(=O)N1CCCCN1C(=O)[C@H](Cc2ccc(O)cc2)n2cccc2-c2ccccc21`: the CC50 in test [1] came to 23 µg/mL (≈ 45.5 µM). In addition, the concentration for an effect of 90% (IC90) in test [2] is over 23 µg/mL.
Consider `CN1C(=O)[C@H](Cc2ccc(O)cc2)n2cccc2-c2ccccc21`, for which the CC50 in test [1] was determined as 5.2 µg/mL (≈ 16.3 µM). Also, the IC90 in test [2] was over 5.2 µg/mL.
`O=C(C[C@H]1C(=O)Nc2ccccc2-c2cccn21)OCc1ccccc1`: the IC90 in test [4] was 0.29 µg/mL (≈ 0.837 µM); in test [8], 800 nM; in test [2], 0.29 µg/mL (≈ 0.837 µM); in test [7] it was over 0.3 µg/mL. Further, the CC50 was over 10 µg/mL in test [5] and 10 µg/mL (≈ 28.9 µM) in test [1]. This compound came in with an IC50 in test [6] of 3 µg/mL (≈ 8.66 µM).
With `O=Cc1ccc2n1[C@@H](Cc1ccccc1)C(=O)Nc1ccccc1-2`, in test [1], the CC50 was 2.5 µg/mL (≈ 7.9 µM). Besides, the IC90 in test [2] was over 2.5 µg/mL.
The corresponding values for `O=C1c2ccccc2C(=O)N1CCCCCN1C(=O)[C@H](Cc2ccc(O)cc2)n2cccc2-c2ccccc21` are over 50 µg/mL and 2.6 µg/mL (≈ 5 µM).
On to `O=C(O)C[C@H]1C(=O)Nc2ccccc2-c2cccn21`, for which the CC50 in test [1] was over 50 µg/mL. Also, the IC90 in test [2] was over 50 µg/mL.
Consider `O=C1Cn2cccc2-c2ccccc2N1`, for which the CC50 in test [1] was over 50 µg/mL. In test [2], this compound displayed an IC90 of over 50 µg/mL.
`CC(C)=CCN1Cc2cccc3[nH]c(=S)n(c23)C[C@@H]1C` yielded an IC50 in test [3] of 28 nM.
